The values below are quoted from earlier work in patent publication US6063370A, “Macromolecular complexes for drug delivery” (The Board of Trustees of the University of Illinois, priority 1998, dated 2000).

For this data set the following is noted: heparin having an Mw of about 6,000.

heparin: the Bioavailability is given as 85%.
